21 compounds from patent US10035778B2, “Meta-azacyclic amino benzoic acid derivatives as pan integrin antagonists” (Saint Louis University, priority 2015, dated 2018) can be followed below.

Each structure is given as a SMILES string. Bounds are passed on as bounds.

Data set [1] can be described thus: Oral (PO) cassette pharmacokinetic study in male Sprague-Dawley rats. The note with it: plasma; male Sprague-Dawley rat, 2 mg/kg oral gavage cassette in 0.5% methylcellulose; read-out: AUC (0-inf) after a 2 mg/kg PO dose in rat. The data set is classed as in vivo. Here is the method:
(§1) A minimally sufficient volume of dimethylsulfoxide (DMSO) was added to each test compound to achieve solubilization. For intravenous (IV) delivery, compounds were then formulated as solutions in glycerol formal: saline (either 20:80 or 40:60 v/v) (Sigma Chemicals, St. Louis). For oral (PO) administration, compounds were formulated with 0.5% methylcellulose. Five to six compound solutions were combined into a singled mixed solution for IV and PO cassette administration with final DMSO concentrations <0.6% or <1.2%, for the IV and PO cassettes, respectively. Analytes were detected in test samples using an LC/MS/MS (liquid chromatography/mass spectrometry) system consisting of an LC-20AD pump (Shimadzu, Kyoto, Japan), an HTC PAL autosampler (Leap technologies, Carrboro, N.C.), and a Sciex API-4000 mass spectrometer in ESI mode (AB Sciex, Foster City, Calif.). An Amour C18 reverse phase column (Analytical Sales and Services, Pompton Plains, N.J.) was used for chromatographic separation.
(§2) Pharmacokinetic (PK) studies conducted at Saint Louis University used male Sprague-Dawley rats with an initial body weight of 200 to 220 g. IV PK studies were performed with the following compounds: Examples 1-3 and 5-17 and comparison compounds C12-C18, C29, and C30. Animals were allowed free access to food and water. Rats were individually housed and connected to jugular vein catheters. Each cassette formulation was administered intravenously to two rats (1 mL/kg body weight). Each cassette formulation contained 5-6 compounds at 1 mg/kg in either 20:80 or 40/60 glycerol formal/saline (v/v). Blood was collected manually via the catheter into lithium-heparin tubes at 0.017, 0.083, 0.5, 1, 2, 4, 6 and 24 hours post-dose. Animals were euthanized with CO2 at the end of the experiment.
Oral PK studies were conducted with the following compounds: Examples 1-3 and 5-17 and comparison compounds C12, C14-16 and C29-30. The PO cassette formulations were administered via oral gavage to two rats (10 mL/kg body weight) containing 5-6 compounds per cassette. The oral dose was administered at 2 mg/kg/compound in 0.5% methylcellulose. Blood collection time points were 0.25, 0.5, 1, 2, 4, 6 and 24 hours post-dose into lithium-heparin tubes. Animals were euthanized with CO2 at the end of the experiment.
(§3) Internal standard was added to all samples at 200 ng/mL (final), as well as 150 μL of acetonitrile. Plasma samples (50 μL total volume) were diluted with control nave rat plasma as appropriate to bring the sample measurement into the linear dynamic range of the standard curve. The samples were capped and mixed on a multi-plate vortexer for 5 minutes and centrifuged for 5 minutes at 3200 rmp. The supernant was transferred to 96-well sample plate and capped for LC/MS/MS analysis. Compounds were optimized and monitored for their respective MRM transitions. The mobile phases consisted of 0.1% formic acid (aqueous) and 100% acetonitrile (organic) with an Amour C18 reverse phase column (2.1×30 mm, 5 micron) at a flow rate of 0.35 mL/min. The starting phase was 10% acetonitrile for the 0.9 minutes then increased to 90% acetonitrile over 0.4 minutes, and was maintained for an additional 0.2 minutes before returning to 10% acetonitrile over 0.4 minutes. The 10% acetonitrile was held for an additional 1.6 minutes. Peak areas were integrated using Analyst 1.5.1 (AB Sciex, Foster City, Calif.).

Data set [2] can be described thus: IV cassette pharmacokinetic study in male Sprague-Dawley rats (Saint Louis University). Particulars: plasma; male Sprague-Dawley rat, 1 mg/kg IV cassette, sampling to 24 h; read-out: plasma t½ after 1 mg/kg IV bolus dose in rat (converted). The data set is classed as in vivo. Here is the method: as §1, §2, §3
Data set [3] addresses Recombinant human integrin αvβ6 (Homo sapiens (Human), UniProt P06756+P18564). Briefly: Solid Phase Receptor Assay (SPRA) for αvβ6 function. The data set is classed as binding. Particulars: LAP-coated plate. Here is the method:
5. Solid Phase Receptor Assay (SPRA) for αvβ6 Function
Recombinant human LAP (R&D Systems, 246-LP) diluted to 0.25 μg/mL in TBS+ buffer (25 mM Tris pH 7.4, 137 mM NaCl, 2.7 mM KCl, 1 mM CaCl2, 1 mM MgCl2, 1 mM MnCl2) was added to wells (50 μL/well) of a 96-well half-well transparent microtiter plate (Greiner 675061) and incubated overnight at 4° C. Wells were washed 3 times with 150 μL TBS+, and 150 μL of blocking buffer (TBS+ with 1% bovine serum albumin, Sigma A7906) were added. The plate was incubated for 1 hr at 37° C., and then washed 3× with TBS+ buffer. Recombinant human integrin αvβ6 (R&D Systems, 3817-AV) was diluted to 0.1 μg/mL in TBS+/0.1% bovine serum albumin. Compounds were diluted 1:100 into the integrin solution and then 50 μL added to empty wells of the washed LAP-coated plate according to a standard template with each sample repeated in triplicate. After incubation for two hours at room temperature, the plate was washed 3× with 150 μL of TBS+ buffer. To each well, 50 μL of biotinylated anti-αv antibody (R&D Systems, BAF1219) at 0.5 μg/mL in TBS+/0.1% BSA were added and the plate was covered and incubated for 1 hr at room temperature. After washing the plate 3× with 150 μL of TBS+ buffer, 50 μL of streptavidin-conjugated horseradish peroxidase (R&D Systems, DY998) diluted in TBS+ blocking buffer were added to the wells and the plate incubated for 20 min at room temperature. The plate was washed 3× with TBS+ buffer followed by 50 μL of TMB substrate (Sigma T4444) added to each well and the plate incubated for 20 min at room temperature. Plates were read by colorimetric detection at 650 nm wavelength using a Tecan Safire II plate reader. Concentration-response curves were constructed by non-linear regression (best fit) analysis, and IC50 values were calculated for each compound.

Recombinant human integrin αvβ6, sequence (P06756 31-992): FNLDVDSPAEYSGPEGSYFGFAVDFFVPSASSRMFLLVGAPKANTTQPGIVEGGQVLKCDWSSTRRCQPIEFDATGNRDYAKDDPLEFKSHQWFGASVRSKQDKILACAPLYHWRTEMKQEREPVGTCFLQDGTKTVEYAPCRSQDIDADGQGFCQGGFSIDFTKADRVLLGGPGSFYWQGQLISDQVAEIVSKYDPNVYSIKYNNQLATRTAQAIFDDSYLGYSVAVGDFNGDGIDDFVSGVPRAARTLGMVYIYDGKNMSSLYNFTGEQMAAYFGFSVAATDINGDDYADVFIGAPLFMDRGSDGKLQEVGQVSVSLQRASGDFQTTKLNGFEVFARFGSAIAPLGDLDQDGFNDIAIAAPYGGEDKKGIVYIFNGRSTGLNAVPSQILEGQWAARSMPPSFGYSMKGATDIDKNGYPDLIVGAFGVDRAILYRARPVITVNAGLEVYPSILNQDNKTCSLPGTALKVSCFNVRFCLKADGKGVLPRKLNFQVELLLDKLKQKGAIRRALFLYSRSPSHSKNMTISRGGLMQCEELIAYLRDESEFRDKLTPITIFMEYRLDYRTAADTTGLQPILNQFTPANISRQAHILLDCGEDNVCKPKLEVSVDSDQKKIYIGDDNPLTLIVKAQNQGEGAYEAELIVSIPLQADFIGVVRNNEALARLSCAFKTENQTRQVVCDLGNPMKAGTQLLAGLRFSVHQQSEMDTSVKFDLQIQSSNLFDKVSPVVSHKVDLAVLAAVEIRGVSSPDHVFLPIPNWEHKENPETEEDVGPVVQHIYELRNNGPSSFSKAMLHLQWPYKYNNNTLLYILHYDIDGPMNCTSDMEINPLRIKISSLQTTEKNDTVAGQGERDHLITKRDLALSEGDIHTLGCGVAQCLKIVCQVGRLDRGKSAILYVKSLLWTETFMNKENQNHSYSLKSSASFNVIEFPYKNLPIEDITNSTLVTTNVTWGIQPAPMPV
Recombinant human integrin αvβ6, sequence (P18564 22-707): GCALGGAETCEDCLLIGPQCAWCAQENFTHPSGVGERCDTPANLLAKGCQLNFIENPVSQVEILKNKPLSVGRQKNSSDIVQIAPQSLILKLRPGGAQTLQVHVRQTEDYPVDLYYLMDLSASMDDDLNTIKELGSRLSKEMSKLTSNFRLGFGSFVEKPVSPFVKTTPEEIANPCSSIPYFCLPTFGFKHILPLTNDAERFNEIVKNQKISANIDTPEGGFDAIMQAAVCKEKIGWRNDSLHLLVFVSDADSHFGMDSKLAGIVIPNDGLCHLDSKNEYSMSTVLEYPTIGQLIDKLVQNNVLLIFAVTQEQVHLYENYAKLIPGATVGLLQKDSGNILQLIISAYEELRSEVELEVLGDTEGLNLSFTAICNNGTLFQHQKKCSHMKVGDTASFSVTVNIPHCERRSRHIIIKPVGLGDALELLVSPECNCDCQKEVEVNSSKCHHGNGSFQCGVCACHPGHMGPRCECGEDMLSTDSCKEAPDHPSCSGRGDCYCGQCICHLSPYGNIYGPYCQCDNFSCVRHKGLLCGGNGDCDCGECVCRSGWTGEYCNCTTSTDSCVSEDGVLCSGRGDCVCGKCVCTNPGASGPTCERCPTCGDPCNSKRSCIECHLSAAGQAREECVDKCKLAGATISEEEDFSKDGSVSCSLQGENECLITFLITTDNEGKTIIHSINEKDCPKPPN

Turning to `O=C(O)C[C@H](NC(=O)CNC(=O)c1cc(O)cc(NC2=NCC(O)CN2)c1)c1cc(Br)cc(Br)c1` (stereo partly drawn) [Example 1, (3S)-3-(3,5-dibromophenyl)-3-(2-(3-hydroxy-5-((5-hydroxy-1,4,5,6-tetrahydropyrimidin-2-yl)amino)benzamido)acetamido)propanoic acid], the AUC(0-inf) in data set [1] turned out to be 25000 ng·h/mL. Moreover, in data set [2], the half-life is 20.2 h. For the same compound, the IC50 – broadly, the point on the concentration scale where inhibition reaches its midpoint – in data set [3] was 0.4 nM.

With `O=C(O)C[C@H](NC(=O)CNC(=O)c1cc(O)cc(NC2=NCC(O)CN2)c1)c1cc(Br)cc(C(F)(F)F)c1` (stereo partly drawn) [Example 2, (3S)-3-(3-bromo-5-(trifluoromethyl)phenyl)-3-(2-(3-hydroxy-5-((5-hydroxy-1,4,5,6-tetrahydropyrimidin-2-yl)amino)benzamido)acetamido)propanoic acid], the AUC(0-inf) in data set [1] is 19300 ng·h/mL. For the same compound, in data set [2], the half-life was 9.1 h. The IC50 in data set [3] was determined as 0.3 nM.

Take `O=C(O)C[C@H](NC(=O)CNC(=O)c1cc(O)cc(NC2=NCC(O)CN2)c1)c1cc(Cl)cc(C(F)F)c1` (stereo partly drawn) [Example 3, (3S)-3-[3-chloro-5-(difluoromethyl)phenyl)-3-(2-(3-hydroxy-5-((5-hydroxy-1,4,5,6-tetrahydropyrimidin-2-yl)amino)benzamido)acetamido]propanoic acid]: the AUC(0-inf) in data set [1] is 4870 ng·h/mL. In addition, the half-life in data set [2] was 6.1 h. The IC50 in data set [3] stood at 0.4 nM.

Regarding `O=C(O)C[C@H](NC(=O)CNC(=O)c1cc(O)cc(NC2=NCC(O)CN2)c1)c1cc(Br)cc(C(F)F)c1` (stereo partly drawn) [Example 4, (3S)-3-[3-bromo-5-(difluoromethyl)phenyl)-3-(2-(3-hydroxy-5-((5-hydroxy-1,4,5,6-tetrahydropyrimidin-2-yl)amino)benzamido)acetamido]propanoic acid], the IC50 in data set [3] turned out to be 0.4 nM.

Regarding `O=C(O)C[C@H](NC(=O)CNC(=O)c1cc(O)cc(NC2=NCC(O)CN2)c1)c1cc(Cl)cc(C(F)(F)F)c1` (stereo partly drawn) [Example 5, (3S)-3-[3-chloro-5-(trifluoromethyl)phenyl)-3-(2-(3-hydroxy-5-((5-hydroxy-1,4,5,6-tetrahydropyrimidin-2-yl)amino)benzamido)acetamido]propanoic acid], the AUC(0-inf) in data set [1] worked out at 11400 ng·h/mL. In addition, the half-life in data set [2] was 6.6 h. Moreover, the IC50 in data set [3] was 0.5 nM.

With `O=C(O)C[C@H](NC(=O)CNC(=O)c1cc(O)cc(NC2=NCC(O)CN2)c1)c1cc(Cl)cc(Br)c1` (stereo partly drawn) [Example 6, (3S)-3-[3-bromo-5-chloro-phenyl)-3-(2-(3-hydroxy-5-((5-hydroxy-1,4,5,6-tetrahydropyrimidin-2-yl)amino)benzamido)acetamido]propanoic acid], the AUC(0-inf) in data set [1] amounted to 34400 ng·h/mL. The half-life in data set [2] is 16.7 h. For the same compound, in data set [3], the IC50 turned out to be 0.4 nM.

For the compound `O=C(O)C[C@H](NC(=O)CNC(=O)c1cncc(NC2=NCC(O)CN2)c1)c1cc(Cl)cc(C(F)(F)F)c1` (stereo partly drawn) [Example 7], the AUC(0-inf) in data set [1] worked out at 3890 ng·h/mL. Further, in data set [2], the half-life is 4.6 h. In addition, in data set [3], the IC50 came out at 0.3 nM.

For the compound `O=C(O)C[C@H](NC(=O)CNC(=O)c1cncc(NC2=NCC(O)CN2)c1)c1cc(Cl)cc(Br)c1` (stereo partly drawn) [Example 8, (3S)-3-(3-bromo-5-chloro-phenyl)-3-[[2-[[5-[(5-hydroxy-1,4,5,6-tetrahydropyrimidin-2-yl)amino]pyridine-3-carbonyl]amino]acetyl]amino]propanoic acid], the AUC(0-inf) in data set [1] was determined as 4470 ng·h/mL. For the same compound, in data set [2], the half-life was 23.9 h. The IC50 in data set [3] was found to be 0.4 nM.

For `O=C(O)C[C@H](NC(=O)CNC(=O)c1cncc(NC2=NCC(O)CN2)c1)c1cc(Br)cc(C(F)(F)F)c1` (stereo partly drawn) [Example 9, (3S)-3-[3-bromo-5-(trifluoromethyl)phenyl]-3-[[2-[[5-[(5-hydroxy-1,4,5,6-tetrahydropyrimidin-2-yl)amino]pyridine-3-carbonyl]amino]acetyl]amino]propanoic acid], in data set [1], the AUC(0-inf) was determined as 4120 ng·h/mL. Moreover, in data set [2], the half-life was 5.6 h. The IC50 in data set [3] came to 0.3 nM.

Regarding `O=C(O)C[C@H](NC(=O)CNC(=O)c1cc(O)cc(NC2=NCC(O)CN2)c1)c1cc(C(F)(F)F)cc(C(F)(F)F)c1` (stereo partly drawn) [Example 10, (3S)-3-[3,5-bis(trifluoromethyl)phenyl)-3-(2-(3-hydroxy-5-((5-hydroxy-1,4,5,6-tetrahydropyrimidin-2-yl)amino)benzamido)acetamido]propanoic acid], the AUC(0-inf) in data set [1] was 13000 ng·h/mL. In addition, the half-life in data set [2] is 3.9 h. Further, the IC50 in data set [3] stood at 0.3 ± 0.1 nM.

Regarding `O=C(O)C[C@H](NC(=O)CNC(=O)c1cc(O)cc(NC2=NCC(O)CN2)c1)c1cc(Cl)cc(Br)c1O` (stereo partly drawn) [Example C1, reference compound], in data set [3], the IC50 stood at 2 ± 1 nM.

Take `O=C(O)C[C@H](NC(=O)CNC(=O)c1cc(O)cc(NC2=NCC(O)CN2)c1)c1ccccc1` (stereo partly drawn) [Example C2, reference compound]: in data set [3], the IC50 was > 1000 nM.

For the compound `O=C(O)CC(NC(=O)CNC(=O)c1cc(O)cc(NC2=NCC(O)CN2)c1)c1cc(Cl)cc(Cl)c1O` (stereo not drawn) [Example C3, reference compound], the IC50 in data set [3] turned out to be 1 nM.

With `Cc1cc(C)cc(C(CC(=O)O)NC(=O)CNC(=O)c2cccc(NC(=N)N)c2)c1` (stereo not drawn) [Example C4, reference compound], in data set [3], the IC50 was 2 nM.

Consider `N=C(N)Nc1cccc(C(=O)NCC(=O)NC(CC(=O)O)c2ccccc2)c1` (stereo not drawn) [Example C5, reference compound], for which the IC50 in data set [3] was found to be 17 ± 2 nM.

Consider `Cc1ccc(O)c(C(CC(=O)O)NC(=O)CNC(=O)c2cc(O)cc(NC3=NCC(O)CN3)c2)c1` (stereo not drawn) [Example C6, reference compound], for which, in data set [3], the IC50 is 1 nM.

Take `O=C(O)CC(NC(=O)CNC(=O)c1cc(O)cc(NC2=NCC(O)CN2)c1)c1cc(Br)cc(Br)c1O` (stereo not drawn) [Example C7, reference compound]: the IC50 in data set [3] came out at 12 nM.

Regarding `Cc1ccc(O)c(C(CC(=O)O)NC(=O)CNC(=O)c2cccc(NC(=N)N)c2)c1` (stereo not drawn) [Example C8, reference compound], the IC50 in data set [3] was 2 nM.

On to `N=C(N)Nc1cccc(C(=O)NCC(=O)NC(CC(=O)O)c2cc(F)cc(C(F)(F)F)c2)c1` (stereo not drawn) [Example C9, reference compound], for which the IC50 in data set [3] amounted to 1 nM.

With `Cc1cc(Cl)cc([C@@H](CC(=O)O)NC(=O)CNC(=O)c2cc(O)cc(NC3=NCC(O)CN3)c2)c1O` (stereo partly drawn) [Example C10, reference compound], in data set [3], the IC50 was 3 nM.

On to `Cc1cc(Cl)cc([C@@H](CC(=O)O)NC(=O)CNC(=O)c2cccc(NC3=NCCN3)c2)c1O` [Example C11, reference compound], for which the IC50 in data set [3] was 4 nM.
